“And” between values parts separate entries of the source, which are not always exact repeats. Equal entries are not always repeated.
System: 435261-313-R-J1-PDC complex spheroid viability
Test: Anticancer human tumor 435261-313-R-J1-PDC patient-derived colon adenocarcinoma cell line growth inhibition [GQUAD]
Details: for viability, T/C: stronger effect = lower value
Text: DNA G-quadruplex Stabilizer Agents in Combinations in Complex Spheroids
A high-throughput screen of multi-cell type tumor spheroids was designed to identify active combinations of DNA G-quadruplex stabilizer agents and targeted small molecules. Complex spheroids include a stromal component modeled by human endothelial cells (HUVEC) and fibroblasts modeled by human mesenchymal stem cells (MSCs). The concentration ranges selected for each drug and investigational agent were based upon clinically achievable concentrations if the clinical Cmax of the agent was known.
Compounds. The drugs and investigational agents: pidnarulex (CX-5461; NSC782164), APTO-253 (NSC789042), BRACO-19 (NSC847499), peposertib (NSC802822), ceralasertib (NSC780249), elimusertib (NSC800525), camonsertib (NSC841442), AZD-1390 (NSC803789), olaparib (NSC753686), talazoparib (NSC767125), ART-558 (NSC835418), sotorasib (NSC818433), MRTX-1133 (NSC836407), SN-38 (NSC673596), topotecan (NSC609699), etoposide (NSC141540), doxorubicin (NSC123127), gemcitabine (NSC613327), 5-fluorouracil (NSC19893), paclitaxel (NSC125973), vemurafenib (NSC761431), panobinostat (NSC761190), R-306465 (JNJ-16241199; NSC773264), adavosertib (NSC754352), TP-3654 (NSC805149), carboplatin (NSC241240), KSQ-4279 (NSC840948), and staurosporine (NSC755774) were obtained from the National Cancer Institute (NCI) Developmental Therapeutics Program Chemical Repository (34). The FDA-approved anticancer drug set is available from the NCI Developmental Therapeutics Program. […] The stock solutions were prepared in dimethyl sulfoxide (DMSO, Sigma-Aldrich, St. Louis, MO, cat. D2650) at 800-fold the tested concentration and stored at -70 degrees C prior to their use. All drugs and investigational agents were tested over a range starting from a high concentration at or near the clinical Cmax and decreasing in half-log increments. If the clinical Cmax for an agent had not been determined, the highest concentration tested was 10 microM.
2.3 Cell Culture. All cells were maintained in an incubator at 37 degrees C and 5% CO2 with 95% humidity. The PDC lines were cultured according to standard operating procedures established by the NCI PDMR. All PDCs were thawed and cultured in Matrigel-coated flasks prepared with a working solution of 1X Ham's F-12 nutrient mix, without supplementation (Invitrogen, cat. 11765054), 100 U/mL penicillin-streptomycin (Invitrogen, cat. 15140122), and 2.5% Matrigel (Corning Inc., cat. 354248) for the first three passages. The 857933-349-R-J2-PDC line was cultured in 6C/Colon 1B media, which includes advanced DMEM/F-12 (Thermo Fisher Scientific, cat. 12634028), 10 mM HEPES (Thermo Fisher Scientific, cat. 15630080), 1X GlutaMAX supplement (Thermo Fisher Scientific, cat. 35050061), 0.1 mg/mL primocin (InvivoGen, cat. ant-pm-2), 10% defined fetal bovine serum, heat inactivated (HyClone Laboratories Inc., cat. SH30070.03HI), 50% L-WRN conditioned media (ATCC, cat. CRL-3276), 1.25 mM N-Acetyl-L-cysteine (Sigma-Aldrich, cat. A9165), 10 mM nicotinamide (Sigma-Aldrich, cat. N0636), 1X B-27 supplement (Thermo Fisher Scientific, cat. 17504044), 1X N-2 supplement (Thermo Fisher Scientific, cat. 17502048), 10 microM Y-27632 dihydrochloride (Tocris Bioscience, cat. 1254), and 50 ng/mL human EGF recombinant protein (Thermo Fisher Scientific, cat. PHG0311). The 485176-168-R4-J1-PDC line was cultured in Panc media, which includes all 6C/Colon 1B media components plus 100 ng/mL human FGF-10 (Thermo Fisher Scientific, cat. 100-26), 500 nM SB-431542 (Selleckchem, cat. S1067), and gastrin (Tocris, cat. 3006).
[…]
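Further: spheroids exposed to the agents for seven days before readout.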
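Wherever viability, T/C is given: percent of vehicle control viability with DMSO wells as 100%.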

C#Cc1c(F)ccc2cc(O)cc(-c3ncc4c(N5CC6CCC(C5)N6)nc(OCC56CCCN5CC(F)C6)nc4c3F)c12 (stereo unspecified)
viability, T/C (compound 0.0316 µM): 108% and 99.7% and 99.5% | viability, T/C (compound 0.1 µM): 99.8% and 93.3% and 92.1% | viability, T/C (compound 0.316 µM): 92.1% and 98.2% and 99.7% | viability, T/C (compound 1 µM): 80.9% and 54.3% and 80.5% | viability, T/C (compound 3.16 µM): 51.5% and 76.6% and 64.6% | viability, T/C (compound 10 µM): 57.3% and 53.5% and 39.1% | IC50 (curve of compound): > 10 µM and 6.01 µM

Nc1ccn(C2OC(CO)C(O)C2(F)F)c(=O)n1 (stereo unspecified) + Cc1cnc(CNC(=O)c2c(=O)c3ccc(N4CCCN(C)CC4)nc3n3c2sc2ccccc23)cn1
IC50 (curve of first compound, second compound 0.0316 µM): > 10 µM | IC50 (curve of first compound, second compound 0.1 µM): > 10 µM | IC50 (curve of first compound, second compound 0.316 µM): 4.26 µM | IC50 (curve of first compound, second compound 1 µM): < 0.0316 µM | IC50 (curve of first compound, second compound 3.16 µM): < 0.0316 µM | IC50 (curve of first compound, second compound 10 µM): < 0.0316 µM | viability, T/C (second compound 0.0316 µM, first compound 0.0316 µM): 85.8% | viability, T/C (second compound 0.0316 µM, first compound 0.1 µM): 63.4% | viability, T/C (second compound 0.0316 µM, first compound 0.316 µM): 64.2% | viability, T/C (second compound 0.0316 µM, first compound 1 µM): 59.8% | viability, T/C (second compound 0.0316 µM, first compound 3.16 µM): 73.4% | viability, T/C (second compound 0.0316 µM, first compound 10 µM): 59.3% | viability, T/C (second compound 0.1 µM, first compound 0.0316 µM): 62.5% | viability, T/C (second compound 0.1 µM, first compound 0.1 µM): 67.5% | viability, T/C (second compound 0.1 µM, first compound 0.316 µM): 58.2% | viability, T/C (second compound 0.1 µM, first compound 1 µM): 79.8% | viability, T/C (second compound 0.1 µM, first compound 3.16 µM): 61.6% | viability, T/C (second compound 0.1 µM, first compound 10 µM): 59.9% | viability, T/C (second compound 0.316 µM, first compound 0.0316 µM): 64.5% | viability, T/C (second compound 0.316 µM, first compound 0.1 µM): 59.7% | viability, T/C (second compound 0.316 µM, first compound 0.316 µM): 56.3% | viability, T/C (second compound 0.316 µM, first compound 1 µM): 56.7% | viability, T/C (second compound 0.316 µM, first compound 3.16 µM): 54.4% | viability, T/C (second compound 0.316 µM, first compound 10 µM): 43.6% | viability, T/C (second compound 1 µM, first compound 0.0316 µM): 51.5% | viability, T/C (second compound 1 µM, first compound 0.1 µM): 46.9% | viability, T/C (second compound 1 µM, first compound 0.316 µM): 47.8% | viability, T/C (second compound 1 µM, first compound 1 µM): 52.1% | viability, T/C (second compound 1 µM, first compound 3.16 µM): 47% | viability, T/C (second compound 1 µM, first compound 10 µM): 28% | viability, T/C (second compound 3.16 µM, first compound 0.0316 µM): 23.3% | viability, T/C (second compound 3.16 µM, first compound 0.1 µM): 26.2% | viability, T/C (second compound 3.16 µM, first compound 0.316 µM): 21.9% | viability, T/C (second compound 3.16 µM, first compound 1 µM): 6.98% | viability, T/C (second compound 3.16 µM, first compound 3.16 µM): 14% | viability, T/C (second compound 3.16 µM, first compound 10 µM): 0.27% | viability, T/C (second compound 10 µM, first compound 0.0316 µM): 0.21% | viability, T/C (second compound 10 µM, first compound 0.1 µM): 0.2% | viability, T/C (second compound 10 µM, first compound 0.316 µM): 0.17% | viability, T/C (second compound 10 µM, first compound 1 µM): 0.31% | viability, T/C (second compound 10 µM, first compound 3.16 µM): 0.2% | viability, T/C (second compound 10 µM, first compound 10 µM): 0.21%

CCc1c2c(nc3ccc(O)cc13)-c1cc3c(c(=O)n1C2)COC(=O)[C@]3(O)CC
viability, T/C (compound 0.000999 µM): 92.5% and 68.7% and 82% | viability, T/C (compound 0.00316 µM): 48.6% and 84.6% and 53.4% | viability, T/C (compound 0.00999 µM): 66.8% and 82.9% and 63.2% | viability, T/C (compound 0.0316 µM): 48.6% and 83.2% and 48.7% | viability, T/C (compound 0.0999 µM): 44% and 53.8% and 41.1% | viability, T/C (compound 0.316 µM): 30.8% and 54.3% and 25.1%

CC(=O)O[C@H]1C(=O)[C@@]2(C)[C@H]([C@H](OC(=O)c3ccccc3)[C@]3(O)C[C@H](OC(=O)[C@H](O)[C@@H](NC(=O)c4ccccc4)c4ccccc4)C(C)=C1C3(C)C)[C@]1(OC(C)=O)CO[C@@H]1C[C@@H]2O
viability, T/C (compound 0.0316 µM): 92.9% and 82.9% and 90.8% | viability, T/C (compound 0.1 µM): 76.1% and 66.3% and 52.6% | viability, T/C (compound 0.316 µM): 68.9% and 81.9% and 51.9% | viability, T/C (compound 1 µM): 68.7% and 43.9% and 69.8% | viability, T/C (compound 3.16 µM): 68.5% and 44.5% and 67.8% | viability, T/C (compound 10 µM): 65.1% and 53.1% and 63.9%

— PubChem BioAssay AID2060494 (Molecular Pharmacology Branch, DTP, NCI, 2025)
